From patent US7501410B2, “Methods of inhibiting BTK and SYK protein kinases” (Roche Palo Alto LLC, priority 2006, dated 2009)

Legend:
[1] = tested on: Ramos cells; test: Inhibition of B-cell activation, B cell FLIPR assay in Ramos cells; assay type: cell-based; settings: Homo sapiens, anti-IgM stimulated intracellular calcium increase
Text: Inhibition of B-cell Activation—B Cell FLIPR Assay in Ramos Cells
The B cell FLIPR assay is a cell based functional method of determining the effect of potential inhibitors of the intracellular calcium increase from stimulation by an anti-IgM antibody. Ramos cells (human Burkitt's lymphoma cell line. ATCC-No. CRL-1596) were cultivated in Growth Media (described below). One day prior to assay, Ramos cells were resuspended in fresh growth media (same as above) and set at a concentration of 0.5×10^6/mL in tissue culture flasks. On day of assay, cells were counted and set at a concentration of 1×10^6/mL in growth media supplemented with 1 μM FLUO-3 AM(TefLabs Cat-No. 0116, prepared in anhydrous DMSO and 10% Pluronic acid) in a tissue culture flask, and incubated at 37° C. (4% CO2) for 1 h. To remove extracellular dye, cells were collected by centrifugation (5 min, 1000 rpm), resuspended in FLIPR buffer (described below) at 1×10^6 cells/mL and then dispensed into 96-well poly-D-lysine coated black/clear plates (BD Cat-No. 356692) at 1×10^5 cells per well. Test compounds at seven concentrations ranging from 100 μM to 0.03 μM were added, and allowed to incubate with cells for 30 min at RT. Ramos cell Ca^2+ signaling was stimulated by the addition of 10 μg/mL anti-IgM (Southern Biotech, Cat-No. 2020-01) and measured on a FLIPR (Molecular Devices, captures images of 96 well plates using a CCD camera with an argon laser at 480 nm excitation).
Growth Medium: RPMI 1640 medium with L-glutamine (Invitrogen, Cat-No. 61870-010), 10% Fetal Bovine Serum (FBS, Summit Biotechnology Cat-No. FP-100-05); 1 mM Sodium Pyruvate (Invitrogen Cat. No. 11360-070).
FLIPR buffer: HBSS (Invitrogen, Cat-No. 141175-079),2 mM CaCl2 (Sigma Cat-No. C-4901), HEPES (Invitrogen, Cat-No. 15630-080), 2.5 mM Probenecid (Sigma, Cat-No. P-8761), 0.1% BSA (Sigma, Cat-No. A-7906), 11 mM Glucose (Sigma, Cat-No. G-7528).
In order to achieve the highest final assay concentration of 100 μM, 24 μL of 10 mM compound stock solution (made in DMSO) is added directly to 576 μL of FLIPR buffer. The test compounds are diluted in FLIPR Buffer (using Biomek 2000 robotic pipettor) resulting in the following dilution scheme: vehicle, 1.00×10^−4 M, 1.00×10^−5, 3.16×10^−6, 1.00×10^−6, 3.16×10^−7, 1.00×10^−7, 3.16×10^−8.
Intracellular increases in calcium were reported using a max-min statistic (subtracting the resting baseline from the peak caused by addition of the stimulatory antibody using a Molecular Devices FLIPR control and statistic exporting software. The IC50 was determined using a non-linear curve fit (GraphPad Prism software). Representative results are in Table 1.

[2] = target: T1, Bruton's Tyrosine Kinase (Btk) (Homo sapiens, UniProt Q06187); test: Determination of IC50 of Bruton's Tyrosine Kinase (Btk) inhibition, 33P filtration assay; assay type: biochemical; settings: His-tagged full-length Btk, 100 μM ATP
T1 construct: 5-10 nM Btk enzyme (His-tagged, full-length); His tag
T1 sequence (Q06187 whole entry): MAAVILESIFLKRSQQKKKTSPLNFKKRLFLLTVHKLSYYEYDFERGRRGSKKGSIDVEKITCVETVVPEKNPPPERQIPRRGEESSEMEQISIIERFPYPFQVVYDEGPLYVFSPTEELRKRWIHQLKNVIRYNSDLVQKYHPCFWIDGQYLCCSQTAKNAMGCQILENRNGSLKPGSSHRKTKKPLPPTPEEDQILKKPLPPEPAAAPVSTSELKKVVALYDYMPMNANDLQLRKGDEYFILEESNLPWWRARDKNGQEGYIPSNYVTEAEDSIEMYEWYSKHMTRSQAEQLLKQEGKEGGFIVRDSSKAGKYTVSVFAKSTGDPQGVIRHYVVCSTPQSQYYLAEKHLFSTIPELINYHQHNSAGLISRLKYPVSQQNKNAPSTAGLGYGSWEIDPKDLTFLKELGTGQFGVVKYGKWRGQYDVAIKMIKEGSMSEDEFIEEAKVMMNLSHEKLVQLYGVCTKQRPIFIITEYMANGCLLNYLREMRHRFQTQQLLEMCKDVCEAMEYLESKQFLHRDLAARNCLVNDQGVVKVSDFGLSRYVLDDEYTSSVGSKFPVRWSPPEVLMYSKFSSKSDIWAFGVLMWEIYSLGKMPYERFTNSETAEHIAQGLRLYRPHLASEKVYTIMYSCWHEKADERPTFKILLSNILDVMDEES
Text: Determination of IC50 of Bruton's Tyrosine Kinase (Btk) Inhibition
The assay is a capture of radioactive ^33P phosphorylated product through filtration. The interactions of Btk, biotinylated SH2 peptide substrate (Src homology), and ATP lead to phosphorylation of the peptide substrate. Biotinylated product is bound streptavidin sepharose beads. All bound, radiolabeled products are detected by scintillation counter.
Plates assayed are 96-well polypropylene (Greiner) and 96-well 1.2 μm hydrophilic PVDF filter plates (Millipore). Concentrations reported here are final assay concentrations: 10-100 μM compounds in DMSO (Burdick and Jackson), 5-10 nM Btk enzyme (His-tagged, full-length), 30 μM peptide substrate (Biotin-Aca-[…]-NH2), 100 μM ATP (Sigma), 8 mM imidazole (Sigma, pH 7.2), 8 mM glycerol-2-phosphate (Sigma), 200 μM EGTA (Roche Diagnostics), 1 mM MnCl2 (Sigma), 20 mM MgCl2 (Sigma), 0.1 mg/ml BSA (Sigma), 2 mM DTT (Sigma), 1 μCi ^33P ATP (Amersham), 20% streptavidin sepharose beads (Amersham), 50 mM EDTA (Gibco), 2 M NaCl (Gibco), 2 M NaCl w/1% phosphoric acid (Gibco), microscint-20 (Perkin Elmer).
IC50 determinations are calculated from 10 data points per compound utilizing data produced from a standard 96-well plate assay template. One control compound and seven unknown inhibitors were tested on each plate and each plate was run twice. Typically, compounds were diluted in half-log starting at 100 μM and ending at 3 nM. The control compound was staurosporine. Background was counted in the absence of peptide substrate. Total activity was determined in the presence of peptide substrate. The following protocol was used to determine BTK inhibition.
1) Sample preparation: The test compounds were diluted at half-log increments in assay buffer (imidazole, glycerol-2-phosphate, EGTA, MnCl2, MgCl2, BSA).
2) Bead preparation • a.) rinse beads by centrifuging at 500 g • b.) reconstitute the beads with PBS and EDTA to produce a 20% bead slurry
3) Pre-incubate reaction mix without substrate (assay buffer, DTT, ATP, ^33P ATP) and mix with substrate (assay buffer, DTT, ATP, ^33P ATP, peptide substrate) 30° C. for 15 min.
4) To start assay, pre-incubate 10 μL BTK in enzyme buffer (imidazole, glycerol-2-phosphate, BSA) and 10 μL of test compounds for 10 min at RT.
5) Add 30 μL reaction mixture without or with substrate to BTK and compounds.
6) Incubate 50 μL total assay mix for 30 min at 30° C.
7) Transfer 40 μL of assay to 150 μL bead slurry in filter plate to stop reaction.
8) Wash filter plate after 30 min, with following steps • a. 3 ×250 μL NaCl • b. 3×250 μL NaCl containing 1% phosphoric acid • c. 1×250 μL H2O
9) Dry plate for 1 h at 65° C. or overnight at RT
10) Add 50 μL microscint-20 and count ^33P cpm on scintillation counter.
Calculate percent activity from raw data in cpm percent activity=(sample−bkg)/(total activity−bkg)×100

IC50 [1]: 1.13 µM
IC50 [2]: 0.468 µM
SMILES: Cc1cc(Nc2nn(C(C)C)c(=O)c3cc(N(C)C)ccc23)n[nH]1 [Example F-6, 2-Isopropyl-4-(5-methyl-1H-pyrazol-3-ylamino)-7-dimethylamino-2H-phthalazin-1-one]
